Results as given in ChEMBL document CHEMBL3885881, “DrugMatrix”.

Species: Rattus norvegicus
Test: DrugMatrix - Regimen: Daily Repeat
Format: toxicity, organism-based, Sprague-Dawley
Design: regimen Daily Repeat, gender Male, age 6-8 weeks
Conditions: in vivo, po, route oral GAVAGE, […]; for ABSOLUTE BASOPHIL / ABSOLUTE EOSINOPHIL / ABSOLUTE LYMPHOCYTE / ABSOLUTE MONOCYTE / ABSOLUTE SEGMENTED NEUTROPHIL / BASOPHIL / EOSINOPHIL / ERYTHROCYTE COUNT / HEMATOCRIT / HEMOGLOBIN / LEUKOCYTE COUNT / LYMPHOCYTE / MEAN CORPUSCULAR HEMOGLOBIN / MEAN CORPUSCULAR HEMOGLOBIN CONCENTRATION / MEAN CORPUSCULAR VOLUME / MONOCYTE / NEUTROPHIL / NUCLEATED RED BLOOD CELLS / PLATELET COUNT: tissue Blood; for ALANINE AMINOTRANSFERASE / ALBUMIN / ALKALINE PHOSPHATASE / ASPARTATE AMINOTRANSFERASE / BLOOD UREA NITROGEN / CARBON DIOXIDE / CHLORIDE / CHOLESTEROL / CREATINE PHOSPHOKINASE / CREATININE / GLUCOSE / LACTATE DEHYDROGENASE / LIPASE / PHOSPHORUS / POTASSIUM / SODIUM / TOTAL BILIRUBIN / TOTAL PROTEIN / URIC ACID: tissue Plasma
[1] = 5 mg/kg, 120 h, dose level Low, time 5 day
[2] = 13 mg/kg, 72 h, dose level High, time 3 day
[3] = 13 mg/kg, 120 h, dose level High, time 5 day

O=c1oc2ccccc2c(O)c1Cc1c(O)c2ccccc2oc1=O [DICUMAROL]
ABSOLUTE BASOPHIL [1]: 0 CELLS/uL | ABSOLUTE EOSINOPHIL [1]: 23.33 CELLS/uL | ABSOLUTE LYMPHOCYTE [1]: 6534.33 CELLS/uL | ABSOLUTE MONOCYTE [1]: 0 CELLS/uL | ABSOLUTE SEGMENTED NEUTROPHIL [1]: 809 CELLS/uL | BASOPHIL [1]: 0% | EOSINOPHIL [1]: 0.33% | ERYTHROCYTE COUNT [1]: 5.38 x10E6/uL | HEMATOCRIT [1]: 33.9% | HEMOGLOBIN [1]: 13.03 G/DL | LEUKOCYTE COUNT [1]: 7.37 x10E3/uL | LYMPHOCYTE [1]: 88.67% | MEAN CORPUSCULAR HEMOGLOBIN [1]: 24.27 pg | MEAN CORPUSCULAR HEMOGLOBIN CONCENTRATION [1]: 38.47 G/DL | MEAN CORPUSCULAR VOLUME [1]: 63 fL | MONOCYTE [1]: 0% | NEUTROPHIL [1]: 11% | NUCLEATED RED BLOOD CELLS [1]: 0 /100WBC | PLATELET COUNT [1]: 1062 x10E3/uL | ALANINE AMINOTRANSFERASE [1]: 70.33 u/L | ALBUMIN [1]: 4.17 G/DL | ALKALINE PHOSPHATASE [1]: 492.33 u/L | ASPARTATE AMINOTRANSFERASE [1]: 90.67 u/L | BLOOD UREA NITROGEN [1]: 13.67 mg/dL | CARBON DIOXIDE [1]: 31.67 mmol/L | CHLORIDE [1]: 100 MEQ/L | CHOLESTEROL [1]: 66.67 mg/dL | CREATINE PHOSPHOKINASE [1]: 491.67 u/L | CREATININE [1]: 0.15 mg/dL | GLUCOSE [1]: 160.33 mg/dL | LACTATE DEHYDROGENASE [1]: 134.33 u/L | LIPASE [1]: 9.33 u/L | PHOSPHORUS [1]: 9.47 mg/dL | POTASSIUM [1]: 5.06 MEQ/L | SODIUM [1]: 142.1 MEQ/L | TOTAL BILIRUBIN [1]: 0.17 mg/dL | TOTAL PROTEIN [1]: 6.07 G/DL | URIC ACID [1]: 0.43 mg/dL | ABSOLUTE BASOPHIL [2]: 0 CELLS/uL | ABSOLUTE EOSINOPHIL [2]: 43.33 CELLS/uL | ABSOLUTE LYMPHOCYTE [2]: 9740.67 CELLS/uL | ABSOLUTE MONOCYTE [2]: 39.67 CELLS/uL | ABSOLUTE SEGMENTED NEUTROPHIL [2]: 443 CELLS/uL | BASOPHIL [2]: 0% | EOSINOPHIL [2]: 0.33% | ERYTHROCYTE COUNT [2]: 5.24 x10E6/uL | HEMATOCRIT [2]: 32.97% | HEMOGLOBIN [2]: 12.9 G/DL | LEUKOCYTE COUNT [2]: 10.27 x10E3/uL | LYMPHOCYTE [2]: 95% | MEAN CORPUSCULAR HEMOGLOBIN [2]: 24.7 pg | MEAN CORPUSCULAR HEMOGLOBIN CONCENTRATION [2]: 39.13 G/DL | MEAN CORPUSCULAR VOLUME [2]: 63.17 fL | MONOCYTE [2]: 0.33% | NEUTROPHIL [2]: 4.33% | NUCLEATED RED BLOOD CELLS [2]: 0 /100WBC | PLATELET COUNT [2]: 923.67 x10E3/uL | ALANINE AMINOTRANSFERASE [2]: 65 u/L | ALBUMIN [2]: 3.83 G/DL | ALKALINE PHOSPHATASE [2]: 374.33 u/L | ASPARTATE AMINOTRANSFERASE [2]: 87.33 u/L | BLOOD UREA NITROGEN [2]: 11 mg/dL | CARBON DIOXIDE [2]: 35.33 mmol/L | CHLORIDE [2]: 98 MEQ/L | CHOLESTEROL [2]: 72 mg/dL | CREATINE PHOSPHOKINASE [2]: 494.33 u/L | CREATININE [2]: 0.14 mg/dL | GLUCOSE [2]: 143.67 mg/dL | LACTATE DEHYDROGENASE [2]: 159.67 u/L | LIPASE [2]: 9.33 u/L | PHOSPHORUS [2]: 11.1 mg/dL | POTASSIUM [2]: 6.17 MEQ/L | SODIUM [2]: 142.53 MEQ/L | TOTAL BILIRUBIN [2]: 0.17 mg/dL | TOTAL PROTEIN [2]: 5.83 G/DL | URIC ACID [2]: 0.5 mg/dL | ABSOLUTE BASOPHIL [3]: 0 CELLS/uL | ABSOLUTE EOSINOPHIL [3]: 0 CELLS/uL | ABSOLUTE LYMPHOCYTE [3]: 5152 CELLS/uL | ABSOLUTE MONOCYTE [3]: 45 CELLS/uL | ABSOLUTE SEGMENTED NEUTROPHIL [3]: 403 CELLS/uL | BASOPHIL [3]: 0% | EOSINOPHIL [3]: 0% | ERYTHROCYTE COUNT [3]: 5.48 x10E6/uL | HEMATOCRIT [3]: 33.3% | HEMOGLOBIN [3]: 12.65 G/DL | LEUKOCYTE COUNT [3]: 5.6 x10E3/uL | LYMPHOCYTE [3]: 92% | MEAN CORPUSCULAR HEMOGLOBIN [3]: 23.1 pg | MEAN CORPUSCULAR HEMOGLOBIN CONCENTRATION [3]: 38 G/DL | MEAN CORPUSCULAR VOLUME [3]: 60.75 fL | MONOCYTE [3]: 1% | NEUTROPHIL [3]: 7% | NUCLEATED RED BLOOD CELLS [3]: 1 /100WBC | PLATELET COUNT [3]: 1032 x10E3/uL | ALANINE AMINOTRANSFERASE [3]: 67.5 u/L | ALBUMIN [3]: 3.85 G/DL | ALKALINE PHOSPHATASE [3]: 329.5 u/L | ASPARTATE AMINOTRANSFERASE [3]: 96 u/L | BLOOD UREA NITROGEN [3]: 13 mg/dL | CARBON DIOXIDE [3]: 32.5 mmol/L | CHLORIDE [3]: 100 MEQ/L | CHOLESTEROL [3]: 64 mg/dL | CREATINE PHOSPHOKINASE [3]: 628 u/L | CREATININE [3]: 0.18 mg/dL | GLUCOSE [3]: 150.5 mg/dL | LACTATE DEHYDROGENASE [3]: 133 u/L | LIPASE [3]: 11 u/L | PHOSPHORUS [3]: 9.75 mg/dL | POTASSIUM [3]: 5.09 MEQ/L | SODIUM [3]: 145.4 MEQ/L | TOTAL BILIRUBIN [3]: 0.15 mg/dL | TOTAL PROTEIN [3]: 6 G/DL | URIC ACID [3]: 0.45 mg/dL
